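Results reflect a 48-hour exposure of cells in 96-well plates to compound at five concentrations. GI50 is the concentration that inhibits growth by half.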 Calls of active or inactive are those of the source. Cut-off read from the data, not from the text of the source: active = GI50 up to about 1.1 µM and inactive = higher.
Columns and labels:
Test in all cases: NCI-60 cell line screen, 48 h
[1] = system: OVCAR-5
[2] = system: SN12C
[3] = system: SF-295
[4] = system: SNB-75
[5] = system: OVCAR-8
[6] = system: SF-539
[7] = system: K562
[8] = system: MOLT-4
[9] = system: SK-MEL-28
[10] = system: NCI-H23
[11] = system: IGROV-1
[12] = system: U-251
[13] = system: HT-29
[14] = system: HOP-62
[15] = system: 786-0
[16] = system: Malme-3M
[17] = system: HOP-92
[18] = system: UO-31
[19] = system: RPMI-8226
[20] = system: M14

Structure (SMILES)	GI50 [1]	GI50 [2]	GI50 [3]	GI50 [4]	GI50 [5]	GI50 [6]	GI50 [7]	GI50 [8]	GI50 [9]	GI50 [10]	GI50 [11]	GI50 [12]	GI50 [13]	GI50 [14]	GI50 [15]	GI50 [16]	GI50 [17]	GI50 [18]	GI50 [19]	GI50 [20]
COc1ccc2ccccc2c1C1NC(=O)c2ccccc2N1 (stereo not given)	3.39 µM (inactive)	2.67 µM (inactive)	0.578 µM (active)	1.32 µM (inactive)	3.03 µM (inactive)	1.55 µM (inactive)	0.279 µM (active)	0.826 µM (active)	0.802 µM (active)	4.67 µM (inactive)	1.72 µM (inactive)	2.28 µM (inactive)	0.873 µM (active)	3.51 µM (inactive)	1.53 µM (inactive)	0.634 µM (active)	14.8 µM (inactive)	11.3 µM (inactive)	0.659 µM (active)	0.951 µM (active)
CCCC1NC(=O)C(CC(C)C)NC(=O)c2cccc(n2)C(=O)NC(CC(C)C)C(=O)NC(CCC)C(=O)NC(C(=O)OC)CCCCNC1=O (stereo not given)	> 100 µM (inactive)	34.4 µM (inactive)	51.1 µM (inactive)	16.5 µM (inactive)	32.8 µM (inactive)	22 µM (inactive)	24 µM (inactive)	18 µM (inactive)	25.6 µM (inactive)	47.9 µM (inactive)	31.1 µM (inactive)	32.4 µM (inactive)	30.6 µM (inactive)	81.3 µM (inactive)	> 100 µM (inactive)	21.7 µM (inactive)	14.6 µM (inactive)	> 100 µM (inactive)	14.3 µM (inactive)	91 µM (inactive)
NS(=O)(=O)c1ccc(/N=N/c2cc3ccccc3c(C(=O)O)c2O)cc1	> 54.3 µM (inactive)	> 78.3 µM (inactive)	> 100 µM (inactive)	> 60.7 µM (inactive)	> 56.8 µM (inactive)	> 100 µM (inactive)	> 100 µM (inactive)	> 57 µM (inactive)	> 60.1 µM (inactive)	> 47.8 µM (inactive)	41.6 µM (inactive)	> 39.9 µM (inactive)	> 55.7 µM (inactive)	> 59.2 µM (inactive)	> 55.8 µM (inactive)	> 56.9 µM (inactive)	99.1 µM (inactive)	> 49.8 µM (inactive)	> 100 µM (inactive)	97.1 µM (inactive)
CC(C)/C(Cl)=N/OC(=O)Nc1ccc(OC(F)(F)F)cc1	15.6 µM (inactive)	16.4 µM (inactive)	18.5 µM (inactive)	15.6 µM (inactive)	18.1 µM (inactive)	17.3 µM (inactive)	1.76 µM (inactive)	2.86 µM (inactive)	13.3 µM (inactive)	15.7 µM (inactive)	16.5 µM (inactive)	17.3 µM (inactive)	18.6 µM (inactive)	17.7 µM (inactive)	6.81 µM (inactive)	2.48 µM (inactive)	1.68 µM (inactive)	10.8 µM (inactive)	2.49 µM (inactive)	3.78 µM (inactive)
CCOc1cc(C2SCC(=O)N2c2nc3cc4sc(N5C(=O)CSC5c5ccc(O)c(OCC)c5)nc4cc3s2)ccc1O (stereo not given)	> 100 µM (inactive)	> 31.5 µM (inactive)	> 100 µM (inactive)	> 100 µM (inactive)	> 68.7 µM (inactive)	15.7 µM (inactive)	> 64.6 µM (inactive)	4.61 µM (inactive)	> 100 µM (inactive)	9.59 µM (inactive)	15.9 µM (inactive)	26.5 µM (inactive)	18.4 µM (inactive)	> 100 µM (inactive)	31.6 µM (inactive)	> 68.9 µM (inactive)	27.7 µM (inactive)	21.4 µM (inactive)	32.5 µM (inactive)	> 100 µM (inactive)
COc1ccc2nc3cc(Cl)ccc3c(Sc3ccc([N+](=O)[O-])cc3)c2c1	> 10 µM (inactive)	> 10 µM (inactive)	> 10 µM (inactive)	34.1 µM (inactive)	> 10 µM (inactive)	> 10 µM (inactive)	> 10 µM (inactive)	> 10 µM (inactive)	> 10 µM (inactive)	> 10 µM (inactive)	> 10 µM (inactive)	> 10 µM (inactive)	> 100 µM (inactive)	> 10 µM (inactive)	> 10 µM (inactive)	> 10 µM (inactive)	> 10 µM (inactive)	> 10 µM (inactive)	> 100 µM (inactive)	> 10 µM (inactive)
O=C(CCCCCCCCCCc1ccccc1)c1c(O)cccc1O	21.2 µM (inactive)	18.7 µM (inactive)	21.3 µM (inactive)	29 µM (inactive)	20.7 µM (inactive)	18.1 µM (inactive)	21.4 µM (inactive)	23.7 µM (inactive)	20 µM (inactive)	18.9 µM (inactive)	26.5 µM (inactive)	21.2 µM (inactive)	33 µM (inactive)	20.8 µM (inactive)	17.7 µM (inactive)	17.9 µM (inactive)	23.5 µM (inactive)	21.1 µM (inactive)	34.7 µM (inactive)	20 µM (inactive)
Cc1cc2c(C)nn(Cc3ccccc3)c2c(C(N)=O)c1C	> 100 µM (inactive)	> 100 µM (inactive)	> 100 µM (inactive)	21.6 µM (inactive)	> 100 µM (inactive)	> 100 µM (inactive)	> 100 µM (inactive)	62.1 µM (inactive)	> 100 µM (inactive)	> 100 µM (inactive)	> 100 µM (inactive)	> 100 µM (inactive)	> 100 µM (inactive)	> 100 µM (inactive)	> 100 µM (inactive)	> 100 µM (inactive)	> 100 µM (inactive)	67.9 µM (inactive)	> 100 µM (inactive)	> 100 µM (inactive)
O=C1Oc2cc(O)cc(/C=C/c3ccc(O)cc3)c2[C@@]12c1c(O)cc(O)cc1OC2c1cccc(O)c1 (stereo not given in full)	29.2 µM (inactive)	25.9 µM (inactive)	32.2 µM (inactive)	52.2 µM (inactive)	41.2 µM (inactive)	31.8 µM (inactive)	39.8 µM (inactive)	42.8 µM (inactive)	37.3 µM (inactive)	24.7 µM (inactive)	0.61 µM (active)	32.9 µM (inactive)	29.2 µM (inactive)	20.3 µM (inactive)	24.5 µM (inactive)	33.4 µM (inactive)	31.2 µM (inactive)	29.7 µM (inactive)	13.4 µM (inactive)	28.6 µM (inactive)
O=C1NC(Cc2ccc(O)cc2)C(=O)NC1Cc1ccc(O)cc1 (stereo not given)	> 100 µM (inactive)	27.1 µM (inactive)	> 100 µM (inactive)	28.2 µM (inactive)	> 100 µM (inactive)	> 100 µM (inactive)	> 100 µM (inactive)	> 100 µM (inactive)	> 100 µM (inactive)	> 100 µM (inactive)	> 100 µM (inactive)	> 100 µM (inactive)	> 100 µM (inactive)	> 100 µM (inactive)	> 100 µM (inactive)	> 100 µM (inactive)	> 100 µM (inactive)	> 100 µM (inactive)	> 100 µM (inactive)	> 100 µM (inactive)
